Test results taken from patent publication US20260193285A1, “GRAMINE-PLATINUM (IV) COMPLEX AS WELL AS PREPARATION METHOD THEREFOR AND ANTI-TUMOR USE THEREOF” (TIANJIN MEDICAL UNIVERSITY CANCER INSTITUTE & HOSPITAL, priority 2022, published 2026).
Several values for one entry are separate records, joined by “and”; a condition that tells them apart may be missing. Identical values can stand only once.

Legend:
[1] = test system: KPC tumor model; assay: In vivo anti-tumor activity, pancreatic cancer KPC model; conditions: for final survival rate: dead includes body weight decrease of more than 20%; for tumor inhibition rate at the treatment endpoint: Pt 3.0 mg/kg once every 3 days, five times; for PD-1 level in tumors (flow cytometry): solvent control 15.7%
Description: Firstly, a KPC tumor model was established using C57BL/6 female mice 4-5 weeks old. […] The drugs were formulated at a Pt concentration of 3.0 mg/kg, once every 3 days and five times in total, while the body weight and tumor volume of the mice were measured every 3 days. The mice were sacrificed and the organs (heart, liver, spleen, lung, kidney) and tumors thereof were excised. The tumors were used for flow cytometry to determine the content of immune cells.

[2] = test system: Patient-derived xenografts (PDXs) of pancreatic cancer; assay: In vivo anti-tumor activity, pancreatic cancer PDX model; conditions: for final survival rate: dead includes body weight decrease of more than 20%; for tumor inhibition rate at the treatment endpoint: Pt 3.0 mg/kg once every 3 days, five times
Description: Patient-derived xenografts (PDXs) were used. Fresh tumor tissue from a patient was treated and transplanted subcutaneously into the groin of immunodeficient NOD-SCID IL-2 receptor gamma null (NSG) mice. […] The successfully transplanted tumor was passaged for 3 passages or more in NSG mice to obtain mouse models for experiments. […] The drugs were formulated at a Pt concentration of 3.0 mg/kg, once every 3 days and five times in total, while the body weight and tumor volume of the mice were measured every 3 days. The mice were sacrificed and the organs (heart, liver, spleen, lung, kidney) and tumors thereof were excised. The organs and tumors were used for ICP-MS determination of platinum content.

[3] = test system: 4T1-Luc tumor model; assay: In vivo anti-tumor activity, breast cancer 4T1-Luc tumor model; conditions: for final survival rate: dead includes body weight decrease of more than 20%
Description: Firstly, a 4T1-Luc tumor model was established using Balb/c female mice 4-5 weeks old. After the tumor volume reached […], the mice were randomly divided into four groups, namely Solvent, Cisplatin, Cisplatin+Gramine, and Compound c groups, respectively. The drugs were formulated at a Pt concentration of 2.0 mg/kg, once every 3 days and six times in total, while the body weight and tumor volume of the mice were measured every 2 days. The mice were sacrificed and the organs (heart, liver, spleen, lung, kidney) and tumors thereof were excised. The organs and tumors were used for H&E staining, immunohistochemical staining, and ICP-MS determination of platinum content.

[4] = test system: pancreatic cancer cells SU86.86; assay: CCK-8 inhibition of pancreatic cancer cells, SU86.86; assay type: cell-based; conditions: CCK-8, 72 hours
Description: (§1) In this experiment, CCK-8 was used to study the proliferation activity of pancreatic cancer cells SU86.86, MIA-PaCa2, SW1990, CFPAC-1 and BxPC-3. All cell lines were cultured in an incubator with 5% CO2 and saturated humidity at 37° C. The experimental steps were as follows:
(§2) The cells in logarithmic growth phase were collected, counted, adjusted to a cell concentration of 3×10^4 cells/mL, and then seeded into a 96-well plate at 100 μL/well. The blank group (Blank, medium group without cells) and the control group (Control, medium group with cells) were set up. After the cells in the culture plate were cultured overnight in the incubator with saturated humidity at 37° C. and adhered, the compounds were diluted with culture medium and added to the first column of administration wells at a desired concentration for these wells, followed by the 2-fold serial dilution and administration at 18 concentrations in total, and pipetted gently to mix well. After incubation for 72 hours, 10 μL of CCK8 solution (5 mg/mL) was added to each well. After cultivation in the incubator for another 4 hours, the OD value was measured using a microplate-reader at λ=450 nm.

[5] = test system: LO2 (human liver cells); assay: Cytotoxicity (MTT) on normal cell line LO2; assay type: cell-based; conditions: 72 hours
From the text: (§3) In this assay, the anti-tumor activity of the synthesized compounds was studied by MTT (3-(4,5-dimethylthiazolyl-2)-2,5-diphenyltetrazolium bromide) method. Eight kinds of cancer cells including MDA-MB-231 (human breast cancer cells), MCF-7 (human breast cancer cells), HCT-116 (human colon cancer cells), HeLa (human cervical cancer cells), FaDu (human pharyngeal squamous carcinoma cells), 5637 (human bladder cancer cells), OVCAR3 (human ovarian cancer cells), HCCC9810 (human liver cancer cells) and one normal human cell line LO2 (human liver cells) were used in this assay to perform experimental research on cytotoxicity. All cell lines were cultured in an incubator with 5% CO2 and saturated humidity at 37° C. The specific experimental steps were as follows:
(§4) The cells in logarithmic growth phase were collected, counted, adjusted to a cell concentration of 3× 10^4 cells/mL, and then seeded into a 96-well plate at 100 μL/well. The blank group (Blank, pure medium group) and the control group (Control, no drug group) were set up. The plate was cultured overnight in a cell culture incubator. After adhesion, the compounds were diluted with culture medium and added to the first column of administration wells at a desired concentration for these wells, followed by the 2-fold serial dilution and administration in subsequent wells, and pipetted gently to mix well. After incubation for 72 hours, 10 μL of MTT solution (5 mg/mL) was added to each well. After cultivation in the incubator for another 4 hours, the supernatant was removed, and DMSO was added at 100 μL/well. After shaking thoroughly, the OD value was measured using a microplate-reader at […]. Three independently repeated experiments were carried out to ensure the reliability of the experimental results.

[6] = test system: pancreatic cancer cells BxPC-3; assay: CCK-8 inhibition of pancreatic cancer cells, BxPC-3; assay type: cell-based; conditions: CCK-8, 72 hours
Description: as §1, §2

[7] = test system: MCF-7 (human breast cancer cells); assay: In vitro anti-tumor activity assay (MTT), MCF-7; assay type: cell-based; conditions: average of multiple measurements
From the text: as §3, §4

[8] = test system: pancreatic cancer cells SW1990; assay: CCK-8 inhibition of pancreatic cancer cells, SW1990; assay type: cell-based; conditions: CCK-8, 72 hours
Description: as §1, §2

[9] = test system: pancreatic cancer cells MIA-PaCa2; assay: CCK-8 inhibition of pancreatic cancer cells, MIA-PaCa2; assay type: cell-based; conditions: CCK-8, 72 hours
Description: as §1, §2

[10] = test system: HCT-116 (human colon cancer cells); assay: In vitro anti-tumor activity assay (MTT), HCT-116; assay type: cell-based; conditions: average of multiple measurements
From the text: as §3, §4

[11] = test system: breast cancer organoids from patients; assay: In vitro organoid activity assay, breast cancer; assay type: cell-based, human; conditions: 96 hours, CellTiter-Glo 3D, one value per case; read-out: IC50 in organoid models of 2 cases of breast cancer
Description: (§5) The experimental steps were as follows:
(§6) Tumor samples were obtained from the patients undergoing surgery for breast cancer and pancreatic cancer, and digested with tumor dissociation kits. Tumor suspensions were collected and centrifuged to obtain tumor organoids. Complete culture medium for breast cancer or pancreatic cancer organoids was added to the organoid models which were cultured and passaged under the culture conditions of 5% CO2 and saturated humidity at 37° C. The organoids in logarithmic growth phase were collected, counted, resuspended in Matrigel at an organoid concentration of 5×10^4 cells/mL, and then seeded into a 96-well plate at 20 μL/well, followed by further addition of 80 μL of complete medium. The blank group (Blank, medium group without organoids) and the control group (Control, medium group with organoids) were set up. After the organoids were cultured overnight in an incubator with 5% CO2 at 37° C. and adhered, 200 μL of the culture medium containing the drug at a concentration of 20 μM was added to the first administration well, followed by the 2-fold serial dilution and administration, and pipetted gently to mix well. After incubation for 96 hours, representative photos were taken for each well using an inverted microscope, and 10 μL of CellTiter-Glo 3D Reagent (Promega) solution was added to each well to detect the organoid viability.

[12] = test system: MDA-MB-231 (human breast cancer cells); assay: In vitro anti-tumor activity assay (MTT), MDA-MB-231; assay type: cell-based; conditions: for IC50: 72 hours, MTT, average of multiple measurements
From the text: as §3, §4

[13] = test system: HeLa (human cervical cancer cells); assay: In vitro anti-tumor activity assay (MTT), HeLa; assay type: cell-based; conditions: 72 hours, average of multiple measurements
From the text: as §3, §4

[14] = test system: pancreatic cancer cells CFPAC-1; assay: CCK-8 inhibition of pancreatic cancer cells, CFPAC-1; assay type: cell-based; conditions: CCK-8, 72 hours
Description: as §1, §2

[15] = test system: 5637 (human bladder cancer cells); assay: In vitro anti-tumor activity assay (MTT), 5637; assay type: cell-based; conditions: 72 hours, average of multiple measurements
From the text: as §3
(§7) The cells in logarithmic growth phase were collected, counted, adjusted to a cell concentration of 3× 10^4 cells/mL, and then seeded into a 96-well plate at 100 μL/well. The blank group (Blank, pure medium group) and the control group (Control, no drug group) were set up. The plate was cultured overnight in a cell culture incubator. […] After shaking thoroughly, the OD value was measured using a microplate-reader at 2=570 nm. […]

[16] = test system: OVCAR3 (human ovarian cancer cells); assay: In vitro anti-tumor activity assay (MTT), OVCAR3; assay type: cell-based; conditions: 72 hours, average of multiple measurements, read-out: IC50 OVCRA3
From the text: as §3, §7

[17] = test system: HCCC9810 (human liver cancer cells); assay: In vitro anti-tumor activity assay (MTT), HCCC9810; assay type: cell-based; conditions: 72 hours, average of multiple measurements, read-out: IC50 HCCC 9810
From the text: as §3, §7

[18] = test system: FaDu (human pharyngeal squamous carcinoma cells); assay: In vitro anti-tumor activity assay (MTT), FaDu; assay type: cell-based; conditions: 72 hours, average of multiple measurements
From the text: as §3, §7

[19] = test system: pancreatic cancer organoids from patients; assay: In vitro organoid activity assay, pancreatic cancer; assay type: cell-based, human; conditions: 96 hours, CellTiter-Glo 3D, one value per case; read-out: IC50 in organoid models of 2 cases of pancreatic cancer
Description: as §5, §6

[20] = pancreatic cancer KPC, Pt 3.0 mg/kg
[21] = pancreatic cancer PDX, Pt 3.0 mg/kg
[22] = 4T1-Luc, Pt 2.0 mg/kg once every 3 days, six times

Compound	final survival rate [1, 20]	final survival rate [2, 21] [%]	H&E staining: damage to tumor tissues ([3]; 4T1-Luc, Pt 2.0 mg/kg)	final survival rate ([3]; 4T1-Luc, Pt 2.0 mg/kg) [%]	IC50 [4] [µM]	IC50 [5] [µM]	tumor inhibition rate at the treatment endpoint ([1]; pancreatic cancer KPC) [%]	PD-1 level in tumors (flow cytometry) [1, 20] [%]	IC50 [6] [µM]	IC50 ([7]; 72 hours) [µM]	IC50 [8] [µM]	IC50 [9] [µM]	body weight change of mice [2, 21]	tumor inhibition rate at the treatment endpoint ([2]; pancreatic cancer PDX) [%]	IC50 ([10]; 72 hours) [µM]	IC50 [12] [µM]	IC50 [13] [µM]	IC50 [14] [µM]	further results
CCCCCCCCCCCCNC(=O)[O][Pt]([NH2])([NH2])([Cl])([Cl])[O]C(=O)CCC(=O)n1cc(CN(C)C)c2ccccc21 [Compound c]	100%	100	severe damage to tumor tissues	100															body weight change of mice ([1]; mouse, in vivo): substantially stable body weight; body weight change of mice ([2]; mouse, in vivo): weight recovery and stability from Day 9 post-treatment; platinum accumulation in tissues (ICP-MS) ([2]; mouse, in vivo): significantly decreased the accumulation in the kidney and spleen; immunohistochemical staining of mouse spleens (CD4+, CD8+, Foxp3 Treg cells) ([3]; 4T1-Luc, Pt 2.0 mg/kg): increasing the number of CD4+ and CD8+ cells, while decreasing the number of Treg cells; tumor growth (tumor volume, tumor weight) [3, 22]: significantly inhibited tumor growth; platinum accumulation in tissues (ICP-MS) ([3]; mouse, in vivo): significantly decreased the accumulation in the kidney and spleen
cisplatin [CDDP]	all died finally	40	severe damage to tumor tissues	16.67	127	3.99	55.67	24.3	420	5.9	500	500	significant decline all the time	32.68	8.79	15.8	4.94	603	body weight change of mice [1, 20]: more significant decline; H&E staining: damage to mouse organs ([3]; 4T1-Luc, Pt 2.0 mg/kg): severe damage to the spleen, kidney, and liver; body weight change of mice [3, 22]: significant decline; IC50 [11]: > 20 µM; selectivity index IC50 (LO2)/IC50 (MDA-MB-231) ([12]; tumor cell line MDA-MB-231 versus normal cell line LO2): 0.25; IC50 [15]: 1.35 µM; IC50 [16]: 1.93 µM; IC50 [17]: 5.55 µM; IC50 [18]: 1.57 µM
CN(C)Cc1c[nH]c2ccccc12 [GM, gramine]						> 100													IC50 ([7]; Homo sapiens, MCF7, 72 hours): > 100 µM; IC50 ([10]; Homo sapiens, HCT-116, 72 hours): > 100 µM; IC50 ([12]; Homo sapiens, MDA-MB-231): > 100 µM; IC50 ([13]; Homo sapiens, HeLa): > 100 µM
O=C1[O][Pt]2([NH][C@@H]3CCCC[C@H]3[NH]2)[O]C1=O [OXP, oxaliplatin]		60			8.02	27.2	64.76	21.0	1.37	17.5	2.8	2	significant decline all the time	68.82	9.98	28.2	14.6	200	IC50 [19]: 12.7 µM and > 20 µM
